Assays:
Experiment in all cases: relative viability (nuclei count vs DMSO), 5 days (fraction); higher = more cells survive
SW 1573 = tested on: SW 1573
Procedure, shortened: (§1)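 Cells from lung cancer lines were seeded into 1536-well plates and, one day later, dosed by pin tool. Treatments were either a single drug or a fixed dose of an anchor drug with five library-drug doses (not always all listed) in √10 steps. After 5 days, nuclei were stained in a one-step fixation (final 0.05% Triton X-100, 1% formaldehyde, 1 ug/ml Hoechst) and counted on 4× images, and relative viability is the treated-to-vehicle nuclei ratio, as the median of duplicate plates.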

A-427 = tested on: A-427
Procedure, shortened: as §1

NCI-H1993 = tested on: NCI-H1993
Procedure, shortened: as §1

LXF-289 = tested on: LXF-289
Procedure, shortened: as §1

NCI-H358 = tested on: NCI-H358
Procedure, shortened: as §1

NCI-H1734 = tested on: NCI-H1734
Procedure, shortened: as §1

NCI-H441 = tested on: NCI-H441
Procedure, shortened: as §1

NCI-H520 = tested on: NCI-H520
Procedure, shortened: as §1

NCI-H522 = tested on: NCI-H522
Procedure, shortened: as §1

COR-L23 = tested on: COR-L23
Procedure, shortened: as §1

BEN = tested on: BEN
Procedure, shortened: as §1

**Q.** Which relative viability (SW 1573; first compound 0.08 µM) does the source give for `C=C1C(=O)O[C@@H](CCCCCCCC)[C@@H]1C(=O)O` [C-75] + O=C(c1cc(Cc2n[nH]c(=O)c3ccccc23)ccc1F)N1CCN(C(=O)C2CC2)CC1 [Olaparib] (partner 8 µM) here?
**A.** The relative viability was 0.485.

**Q.** What about the relative viability (SW 1573; first compound 0.253 µM) of the same compound?
**A.** Its relative viability is 0.547.

**Q.** What about the relative viability (SW 1573; first compound 0.8 µM) of the same compound?
**A.** Its relative viability is 0.505.

**Q.** And the relative viability (SW 1573; first compound 2.53 µM)?
**A.** Its relative viability is 0.309.

**Q.** What about the relative viability (SW 1573; first compound 8 µM) of the same compound?
**A.** Its relative viability is 0.224.

**Q.** What about the relative viability (A-427; first compound 0.08 µM) of the same compound?
**A.** The relative viability was 0.718.

**Q.** What about the relative viability (A-427; first compound 0.253 µM) of the same compound?
**A.** Its relative viability is 0.69.

**Q.** And the relative viability (A-427; first compound 0.8 µM)?
**A.** Its relative viability is 0.678.

**Q.** What about the relative viability (A-427; first compound 2.53 µM) of the same compound?
**A.** The relative viability was 0.708.

**Q.** And the relative viability (A-427; first compound 8 µM)?
**A.** The relative viability was 0.597.

**Q.** And the relative viability (NCI-H1993; first compound 0.08 µM)?
**A.** The relative viability was 1.02.

**Q.** What about the relative viability (NCI-H1993; first compound 0.253 µM) of the same compound?
**A.** The relative viability was 1.34.

**Q.** What about the relative viability (NCI-H1993; first compound 0.8 µM) of the same compound?
**A.** The relative viability was 0.676.

**Q.** And the relative viability (NCI-H1993; first compound 2.53 µM)?
**A.** Its relative viability is 1.05.

**Q.** What about the relative viability (NCI-H1993; first compound 8 µM) of the same compound?
**A.** Its relative viability is 1.17.

**Q.** And the relative viability (LXF-289; first compound 0.08 µM)?
**A.** The relative viability was 1.05.

**Q.** And the relative viability (LXF-289; first compound 0.253 µM)?
**A.** The relative viability was 1.11.

**Q.** And the relative viability (LXF-289; first compound 0.8 µM)?
**A.** Its relative viability is 1.01.

**Q.** And the relative viability (LXF-289; first compound 2.53 µM)?
**A.** The relative viability was 0.992.

**Q.** And the relative viability (LXF-289; first compound 8 µM)?
**A.** The relative viability was 1.06.

**Q.** And the relative viability (NCI-H358; first compound 0.08 µM)?
**A.** The relative viability was 0.642.

**Q.** What about the relative viability (NCI-H358; first compound 0.253 µM) of the same compound?
**A.** Its relative viability is 0.623.

**Q.** What about the relative viability (NCI-H358; first compound 0.8 µM) of the same compound?
**A.** Its relative viability is 0.534.

**Q.** And the relative viability (NCI-H358; first compound 8 µM)?
**A.** Its relative viability is 0.575.

**Q.** And the relative viability (NCI-H1734; first compound 0.08 µM)?
**A.** Its relative viability is 0.546.

**Q.** And the relative viability (NCI-H1734; first compound 0.253 µM)?
**A.** The relative viability was 0.569.

**Q.** What about the relative viability (NCI-H1734; first compound 0.8 µM) of the same compound?
**A.** The relative viability was 0.277.

**Q.** And the relative viability (NCI-H1734; first compound 2.53 µM)?
**A.** The relative viability was 0.506.

**Q.** What about the relative viability (NCI-H1734; first compound 8 µM) of the same compound?
**A.** The relative viability was 0.608.

**Q.** And the relative viability (NCI-H441; first compound 0.08 µM)?
**A.** Its relative viability is 0.487.

**Q.** What about the relative viability (NCI-H441; first compound 0.253 µM) of the same compound?
**A.** The relative viability was 0.391.

**Q.** What about the relative viability (NCI-H441; first compound 0.8 µM) of the same compound?
**A.** Its relative viability is 0.528.

**Q.** What about the relative viability (NCI-H441; first compound 8 µM) of the same compound?
**A.** Its relative viability is 0.486.

**Q.** And the relative viability (NCI-H520; first compound 0.08 µM)?
**A.** Its relative viability is 0.343.

**Q.** What about the relative viability (NCI-H520; first compound 0.253 µM) of the same compound?
**A.** The relative viability was 0.358.

**Q.** What about the relative viability (NCI-H520; first compound 0.8 µM) of the same compound?
**A.** The relative viability was 0.269.

**Q.** And the relative viability (NCI-H520; first compound 2.53 µM)?
**A.** The relative viability was 0.321.

**Q.** What about the relative viability (NCI-H520; first compound 8 µM) of the same compound?
**A.** The relative viability was 0.257.

**Q.** What about the relative viability (NCI-H522; first compound 0.08 µM) of the same compound?
**A.** Its relative viability is 0.592.

**Q.** What about the relative viability (NCI-H522; first compound 0.253 µM) of the same compound?
**A.** Its relative viability is 0.733.

**Q.** What about the relative viability (NCI-H522; first compound 0.8 µM) of the same compound?
**A.** The relative viability was 0.662.

**Q.** And the relative viability (NCI-H522; first compound 2.53 µM)?
**A.** The relative viability was 0.66.

**Q.** And the relative viability (NCI-H522; first compound 8 µM)?
**A.** Its relative viability is 0.547.

**Q.** What about the relative viability (COR-L23; first compound 0.08 µM) of the same compound?
**A.** Its relative viability is 0.353.

**Q.** What about the relative viability (COR-L23; first compound 0.253 µM) of the same compound?
**A.** Its relative viability is 0.216.

**Q.** And the relative viability (COR-L23; first compound 0.8 µM)?
**A.** Its relative viability is 0.284.

**Q.** What about the relative viability (COR-L23; first compound 2.53 µM) of the same compound?
**A.** The relative viability was 0.325.

**Q.** What about the relative viability (COR-L23; first compound 8 µM) of the same compound?
**A.** Its relative viability is 0.319.

**Q.** What about the relative viability (BEN; first compound 0.08 µM) of the same compound?
**A.** Its relative viability is 1.22.

**Q.** And the relative viability (BEN; first compound 0.253 µM)?
**A.** Its relative viability is 1.07.

**Q.** And the relative viability (BEN; first compound 0.8 µM)?
**A.** The relative viability was 1.04.

**Q.** And the relative viability (BEN; first compound 2.53 µM)?
**A.** Its relative viability is 0.771.

**Q.** And the relative viability (BEN; first compound 8 µM)?
**A.** The relative viability was 0.914.
